Where two headings read alike, the source gives them in different places.
Assays:
[1] = target: T1, recombinant N-terminal GST-tagged human Rho kinase 2 (ROCK2, amino acids 1-552) (Homo sapiens, UniProt O75116); experiment: In vitro Rho kinase assay (luciferase-based ATP consumption), ROCK2; format: biochemical
T1 construct: ROCK2, amino acids 1-552; purchased Invitrogen Inc. PV3759
Summary of the method: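 GST-ROCK2 (aa 1-552, 0.82 μg/ml) with 100 μg/ml S6 peptide and 3 µM ATP in Tris pH 7.5 buffer with MgCl2/CaCl2/EGTA/BSA, compound added just after reaction start, 2 h at 30 °C. Remaining ATP read by luciferase luminescence. Efficacy expressed as percentage of H-1152P positive control.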

[2] = target: T2, recombinant N-terminal GST-tagged human Rho kinase 1 (ROCK1, amino acids 1-535) (Homo sapiens, UniProt Q13464); experiment: In vitro Rho kinase assay (luciferase-based ATP consumption), ROCK1; format: biochemical
T2 construct: ROCK1, amino acids 1-535; purchased Invitrogen Inc. PV-3691
Method: In Vitro Rho Kinase Assay
Rho kinase biochemical assays described below depend on firefly luciferase-based, indirect measurement of total ATP consumption by the kinase following incubation with substrate and ATP. 25 μl of Rho kinase assay buffer (20 mM Tris-HCL [pH 7.5], 1 mM MgCl2, 0.4 mM CaCl2, 0.15 mM EGTA, 0.1 mg/ml bovine serum albumin) containing 0.82 μg/ml of recombinant N-terminal GST-tagged human Rho kinase 1 (ROCK1, amino acids 1-535, Invitrogen Inc., cat. #PV-3691) or recombinant N-terminal GST-tagged human Rho kinase 2 (ROCK2, amino acids 1-552, Invitrogen Inc., cat #PV3759), 100 μg/ml S6 peptide substrate (related to amino acids 218-249 of the human 40S ribosomal protein S6, and suitable for ROCK1 or ROCK2, e.g. Upstate/Millipore Inc., cat #12-420), and 3 µM ATP are dispensed to wells of a 384 multi-well opaque plate. The plate is centrifuged for 30 seconds at approximately 200×g. 240 nl of test compound in DMSO is dispensed to each well by passive pin transfer. The lag phase of this in vitro kinase reaction permits addition of compounds soon after the reaction initiates. The reaction is allowed to incubate at 30° C. for 2 hours. The assay plates are sealed and maintained in a humidified environment. After 2 hours, 25 μl of easylite protein kinase assay reagent (Perkin-Elmer, Inc.) is dispensed. After an additional 10 minute incubation at room temperature (about 22° C.), luminescence activity is measured on a Molecular Devices Analyst multi-mode plate reader or other suitable plate reader. Kinase inhibition results in less ATP consumption, and therefore increased luminescence signal. Negative control activity is measured with DMSO lacking any test compound. The positive control is 2-methyl-1-(4-methylisoquinolin-5-ylsulfonyl)perhydro-1,4-diazepine hydrochloride (aka H-1152P, HCl salt). Efficacy is measured as a percentage of positive control activity. […] The designation NT means the cited example was not tested.

[3] = recombinant GST-tagged human ROCK2, luciferase-based ATP consumption, read-out: ROCK2 IC50
[4] = recombinant GST-tagged human ROCK1, luciferase-based ATP consumption, read-out: ROCK1 IC50
[5] = ROCK2 IC50, recombinant GST-tagged human ROCK2, luciferase-based ATP consumption

T1 sequence (O75116 1-552): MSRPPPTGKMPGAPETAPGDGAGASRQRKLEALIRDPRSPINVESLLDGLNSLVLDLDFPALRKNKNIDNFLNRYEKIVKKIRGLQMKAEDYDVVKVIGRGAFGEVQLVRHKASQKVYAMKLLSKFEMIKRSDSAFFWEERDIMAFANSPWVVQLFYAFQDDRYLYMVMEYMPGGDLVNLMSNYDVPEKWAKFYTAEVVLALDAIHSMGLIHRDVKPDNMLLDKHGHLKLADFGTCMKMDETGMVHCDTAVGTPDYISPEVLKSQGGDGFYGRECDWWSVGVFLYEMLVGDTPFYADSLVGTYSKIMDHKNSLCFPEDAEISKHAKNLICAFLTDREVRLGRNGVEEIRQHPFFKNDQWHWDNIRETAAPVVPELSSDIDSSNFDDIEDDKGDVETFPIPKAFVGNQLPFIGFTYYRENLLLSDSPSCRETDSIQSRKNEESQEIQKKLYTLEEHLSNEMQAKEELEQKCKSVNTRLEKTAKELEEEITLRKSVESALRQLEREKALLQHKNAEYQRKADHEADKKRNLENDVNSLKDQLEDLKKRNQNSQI
T2 sequence (Q13464 1-535): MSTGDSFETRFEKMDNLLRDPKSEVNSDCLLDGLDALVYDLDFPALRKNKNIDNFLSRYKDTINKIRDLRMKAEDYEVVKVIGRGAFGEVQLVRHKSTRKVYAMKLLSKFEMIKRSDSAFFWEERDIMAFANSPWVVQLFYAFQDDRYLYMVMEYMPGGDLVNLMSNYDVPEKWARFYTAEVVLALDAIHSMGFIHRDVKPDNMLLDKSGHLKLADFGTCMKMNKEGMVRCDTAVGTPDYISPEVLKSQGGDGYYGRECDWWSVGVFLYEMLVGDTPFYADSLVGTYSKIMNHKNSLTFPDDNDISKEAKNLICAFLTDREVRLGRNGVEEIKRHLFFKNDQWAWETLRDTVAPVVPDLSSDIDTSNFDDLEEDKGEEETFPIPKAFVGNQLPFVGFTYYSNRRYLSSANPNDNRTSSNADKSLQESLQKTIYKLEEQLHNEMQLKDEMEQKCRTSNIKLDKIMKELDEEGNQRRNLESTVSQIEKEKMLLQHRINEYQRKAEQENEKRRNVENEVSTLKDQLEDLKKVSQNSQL

Compound | IC50 [1, 3] [µM] | IC50 [2, 4] [µM] | IC50 [1, 5] [µM] | IC50 ([2]; ROCK1 IC50, recombinant GST-tagged human ROCK1, luciferase-based ATP consumption) [µM]
Cc1c(-c2ccnc(N)n2)sc2ccc(CNC(=O)c3ccc(I)cc3)cc12 [Example 319, Cc1c(sc2ccc(CNC(═O)c3ccc(I)cc3)cc12)-c4ccnc(N)n4] | < 5 | > 5 | – | –
Cc1c(-c2ccnc(N)n2)sc2ccc(CNC(=O)c3cccnc3)cc12 [Example 109, Cc1c(sc2ccc(CNC(═O)c3cccnc3)cc12)-c4ccnc(N)n4] | < 5 | > 5 | – | –
CCOc1ccccc1C(=O)NCc1ccc2sc(-c3ccnc(N)n3)c(C)c2c1 [Example 174, CCOc1ccccc1C(═O)NCc2ccc3sc(c(C)c3c2)-c4ccnc(N)n4] | > 5 | > 5 | – | –
Cc1c(-c2ccnc(N)n2)sc2ccc(CNC(=O)C(C)NC(=O)OC(C)(C)C)cc12 (stereo not drawn) [Example 241, C[C](NC(═O)OC(C)(C)C)C(═O)NCc1ccc2sc(c(C)c2c1)-c3ccnc(N)n3] | > 5 | < 5 | – | –
COc1cccc(C(=O)NCc2ccc3sc(-c4ccnc(N)n4)c(C)c3c2)c1OC [Example 222, COc1cccc(C(═O)NCc2ccc3sc(c(C)c3c2)-c4ccnc(N)n4)c1OC] | < 5 | > 5 | – | –
CCCCCc1ccc(C(=O)NCc2ccc3sc(-c4ccnc(N)n4)c(C)c3c2)cc1 [Example 251, CCCCCc1ccc(cc1)C(═O)NCc2ccc3sc(c(C)c3c2)-c4ccnc(N)n4] | > 5 | < 5 | – | –
Cc1c(-c2ccnc(N)n2)sc2ccc(CNC(=O)c3cccc(C#N)c3)cc12 [Example 127, Cc1c(sc2ccc(CNC(═O)c3cccc(c3)C#N)cc12)-c4ccnc(N)n4] | < 5 | < 5 | – | –
Cc1c(-c2ccnc(N)n2)sc2ccc(Oc3cccc([N+](=O)[O-])c3)cc12 [Example 80, 4-(3-Methyl-5-(3-nitrophenoxy)benzo[b]thiophen-2-yl)pyrimidin-2-amine] | < 5 | < 5 | – | –
CCCc1ccc(C(=O)NCc2ccc3sc(-c4ccnc(N)n4)c(C)c3c2)cc1 [Example 171, CCCc1ccc(cc1)C(═O)NCc2ccc3sc(c(C)c3c2)-c4ccnc(N)n4] | > 5 | > 5 | – | –
COc1cccc(CCc2ccc3sc(-c4ccnc(N)n4)c(C)c3c2)c1 [Example 90, 4-(5-(3-Methoxyphenethyl)-3-methylbenzo[b]thiophen-2-yl)pyrimidin-2-amine] | > 5 | > 5 | – | –
Cc1c(-c2ccnc(N)n2)sc2ccc(CNC(=O)c3cscn3)cc12 [Example 116, Cc1c(sc2ccc(CNC(═O)c3cscn3)cc12)-c4ccnc(N)n4] | < 5 | > 5 | – | –
CC(=O)Nc1cccc(Nc2ccc3sc(-c4ccnc(N)n4)c(C)c3c2)c1 [Example 58, N-(3-(2-(2-Aminopyrimidin-4-yl)-3-methylbenzo[b]thiophen-5-ylamino)phenyl)acetamide] | < 5 | < 5 | – | –
Cc1c(-c2ccnc(N)n2)sc2ccc(CNC(=O)c3cc(C(C)C)cc(C(C)C)c3O)cc12 [Example 298, CC(C)c1cc(C(C)C)c(O)c(c1)C(═O)NCc2ccc3sc(c(C)c3c2)-c4ccnc(N)n4] | < 5 | < 5 | – | –
Cc1c(-c2ccnc(N)n2)sc2ccc(CNC(=O)C(C)c3ccc(-c4ccccc4)c(F)c3)cc12 (stereo not drawn) [Example 318, CC(C(═O)NCc1ccc2sc(c(C)c2c1)-c3ccnc(N)n3)c4ccc(c(F)c4)-c5ccccc5] | < 5 | > 5 | – | –
Cc1cccc(C(=O)NCc2ccc3sc(-c4ccnc(N)n4)c(C)c3c2)c1[N+](=O)[O-] [Example 216, Cc1cccc(C(═O)NCc2ccc3sc(c(C)c3c2)-c4ccnc(N)n4)c1[N+]([O−])═O] | < 5 | > 5 | – | –
Cc1c(-c2ccnc(N)n2)sc2ccc(CNC(=O)c3cc(Cl)ccc3O)cc12 [Example 191, Cc1c(sc2ccc(CNC(═O)c3cc(Cl)ccc3O)cc12)-c4ccnc(N)n4] | < 5 | > 5 | – | –
Cc1ccccc1C(=O)NCc1ccc2sc(-c3ccnc(N)n3)c(C)c2c1 [Example 119, Cc1ccccc1C(═O)NCc2ccc3sc(c(C)c3c2)-c4ccnc(N)n4] | < 5 | > 5 | – | –

Compound | IC50 [1, 3] [µM] | IC50 [2, 4] [µM] | IC50 [1, 5] [µM] | IC50 ([2]; ROCK1 IC50, recombinant GST-tagged human ROCK1, luciferase-based ATP consumption) [µM]
Cc1c(-c2ccnc(N)n2)sc2ccc(CNC(=O)c3c4ccccc4cc4ccccc34)cc12 [Example 297, Cc1c(sc2ccc(CNC(═O)c3c4ccccc4cc5ccccc35)cc12)-c6ccnc(N)n6] | < 5 | < 5 | – | –
Cc1c(-c2ccnc(N)n2)sc2ccc(CNC(=O)c3ccc4c(c3)OCO4)cc12 [Example 172, Cc1c(sc2ccc(CNC(═O)c3ccc4OCOc4c3)cc12)-c5ccnc(N)n5] | < 5 | < 5 | – | –
Cc1c(-c2ccnc(N)n2)sc2ccc(Nc3cccc(NC(=O)c4ccc(C(=O)O)cc4)c3)cc12 [Example 63, 4-(3-(2-(2-Aminopyrimidin-4-yl)-3-methylbenzo[b]thiophen-5-ylamino)phenylcarbamoyl)benzoic acid] | < 5 | < 5 | – | –
Cc1c(-c2ccnc(N)n2)sc2ccc(CNC(=O)c3c(F)c(F)c(F)c(F)c3F)cc12 [Example 276, Cc1c(sc2ccc(CNC(═O)c3c(F)c(F)c(F)c(F)c3F)cc12)-c4ccnc(N)n4] | < 5 | < 5 | – | –
Cc1c(-c2ccnc(N)n2)sc2ccc(CNC(=O)c3cccc(Cl)c3[N+](=O)[O-])cc12 [Example 264, Cc1c(sc2ccc(CNC(═O)c3cccc(Cl)c3[N+]([O−])═O)cc12)-c4ccnc(N)n4] | < 5 | > 5 | – | –
Cc1c(-c2ccnc(N)n2)sc2ccc(Cl)cc12 [Example 1, 4-(5-Chloro-3-methylbenzo[b]thiophen-2-yl)pyrimidin-2-amine] | < 5 | < 5 | – | –
Cc1c(-c2ccnc(N)n2)sc2ccc(CNC(=O)c3c(F)cccc3Cl)cc12 [Example 195, Cc1c(sc2ccc(CNC(═O)c3c(F)cccc3Cl)cc12)-c4ccnc(N)n4] | – | – | < 5 | < 5
Cc1c(-c2ccnc(N)n2)sc2ccc(CNC(=O)c3cc(F)ccc3[N+](=O)[O-])cc12 [Example 230, Cc1c(sc2ccc(CNC(═O)c3cc(F)ccc3[N+]([O−])═O)cc12)-c4ccnc(N)n4] | < 5 | < 5 | – | –
Cc1c(-c2ccnc(N)n2)sc2ccc(CNC(=O)C=Cc3ccc4c(c3)OCO4)cc12 [Example 249, Cc1c(sc2ccc(CNC(═O)C═Cc3ccc4OCOc4c3)cc12)-c5ccnc(N)n5] | < 5 | > 5 | – | –
COC(=O)c1cccc(Sc2ccc3sc(-c4ccnc(N)n4)c(C)c3c2)c1 [Example 85, Methyl 3-(2-(2-aminopyrimidin-4-yl)-3-methylbenzo[b]thiophen-5-ylthio)benzoate] | < 5 | < 5 | – | –
Cc1c(-c2ccnc(N)n2)sc2ccc(CNC(=O)c3csc4ccccc34)cc12 [Example 201, Cc1c(sc2ccc(CNC(═O)c3csc4ccccc34)cc12)-c5ccnc(N)n5] | < 5 | > 5 | – | –
CCCOc1ccc(C(=O)NCc2ccc3sc(-c4ccnc(N)n4)c(C)c3c2)cc1 [Example 213, CCCOc1ccc(cc1)C(═O)NCc2ccc3sc(c(C)c3c2)-c4ccnc(N)n4] | > 5 | < 5 | – | –
C#CCN(Cc1ccc(Cl)cc1Cl)C(=O)c1ccc2sc(-c3ccnc(N)n3)c(C)c2c1 [Example 559, Cc1c(sc2ccc(cc12)C(═O)N(CC#C)Cc3ccc(Cl)cc3Cl)-c4ccnc(N)n4] | – | – | > 5 | –
Cc1c(-c2ccnc(N)n2)sc2ccc(C(=O)N3CCN(C4CCCCC4)CC3)cc12 [Example 519, Cc1c(sc2ccc(cc12)C(═O)N3CCN(CC3)C4CCCCC4)-c5ccnc(N)n5] | > 5 | – | – | –
Cc1c(-c2ccnc(N)n2)sc2ccc(C(=O)NCCCN3CCCC3=O)cc12 [Example 411, Cc1c(sc2ccc(cc12)C(═O)NCCCN3CCCC3═O)-c4ccnc(N)n4] | > 5 | – | – | –
Cc1c(-c2ccnc(N)n2)sc2ccc(CNC(=O)C(NC(=O)OC(C)(C)C)C(C)C)cc12 (stereo not drawn) [Example 293, CC(C)[C](NC(═O)OC(C)(C)C)C(═O)NCc1ccc2sc(c(C)c2c1)-c3ccnc(N)n3] | – | > 5 | – | –
Cc1c(-c2ccnc(N)n2)sc2ccc(C(=O)N3CCN(c4ccc(C#N)cn4)CC3)cc12 [Example 533, Cc1c(sc2ccc(cc12)C(═O)N3CCN(CC3)c4ccc(cn4)C#N)-c5ccnc(N)n5] | < 5 | – | – | –

— patent US20080021026A1, “BENZOTHIOPHENE INHIBITORS OF RHO KINASE” (priority 2006, published 2008)
